Test results: patent publication US20030129204A1, “Vaccines against helminthic parasites” (priority 1994, published 2003)
Like-named read-outs stand apart in the source and are kept apart here. Where a SMILES comes first, the peptide text is derived from it. [ ]: non-standard residue; d: D form. The star is where a group is joined. Sta = CC(C)C[C@H](N)[C@@H](O)CC(=O)O; Isovaleryl = CC(C)CC(=O)*

Experiments:
TSBP proteinases [1] = experiment: Gelatin-substrate gel analysis of TSBP proteinases with inhibitors (O. circumcincta); assay type: biochemical
Protocol: (§1) TSBP were fractionated by non-reducing SDS-PAGE in 7.5% gel slabs containing 0.1% gelatin. The electrode buffer (Laemmli, 1977) was chilled on ice prior to use. After electrophoresis, SDS was eluted from the gel by extensive washing with 2.5% Triton X-100 for 30 minutes. Gel slabs were incubated overnight at 37° C. in 0.1M acetate buffer pH 5, 2 mM with respect to DTT or 0.1M Tris, pH 8.5. For some experiments TSBP were incubated with proteinase inhibitors prior to electrophoresis and inhibitors were also included in the incubation buffer at the final concentrations indicated above. Proteinases were visualised by Coomassie blue counter-staining.
Proteinase activity associated with TSBP was monitored using gelatin-substrate gel analysis as described in Example 2 (paragraph (b)) to enable the characterisation of individual proteinases.

TSBP proteinases [2] = assay type: biochemical, H. contortus; conditions: for proteolysis reduced in the presence of inhibitor (percent activity lost): pH 8.5
Protocol: TSBP (2 μg protein in 10 μl) were mixed with 1OO μl sterile buffer (0.1M acetate, pH5) and 20 μl azocasein (1 mg/ml) in the same buffet. The reaction mixture was supplemented with penicillin (500 iu/ml) and streptomycin (5 mg/ml), vortexed briefly and then incubated overnight at 37° C. Undigested protein was precipitated by the addition of 1M perchloric acid (13O μl) and incubation on ice for 30 minutes. Following centrifugation at 11,000 g for 5 minutes the 0D405 of the resulting supernatant was determined. Blank reactions, containing sterile water instead of TSBP, were run in parallel. The optimal pH for enzyme activity was determined in a series of reactions using buffers over the pH range 3 to 10.
The effects of various proteinase inhibitors on TSBP proteinases were monitored by incubating TSBP with buffer supplemented with inhibitor for 30 minutes prior to addition of azocasein and antibiotics. Inhibitors tested and the final reaction concentrations were phenylmethanesulphonylfluoride (PMSF, 1.0 mM), L-transepoxysuccinyl-L-leucylamido-(4-guanidino)-butane (E64, 100 μM), ethylenediaminetetraacetic-acid (EDTA, 1.0 mM) and pepstatin (10 μM).

TSBP proteinases [3] = experiment: Gelatin-substrate gel analysis of TSBP proteinases with inhibitors (H. contortus); assay type: biochemical; conditions: for 70 kDa proteinase activity / 88 kDa proteinase activity: pH 8.5, PMSF 1.0 mM or EDTA 1.0 mM
Protocol: as §1

[4] = pH 5, azocasein, PMSF 1.0 mM, EDTA 1.0 mM, pepstatin 10 μM

SMILES	97 kDa protease (TSBP proteinases [1]; pH 8.5)	70 kDa proteinase activity (TSBP proteinases [3])	88 kDa proteinase activity (TSBP proteinases [3])	percent activity lost in comparison to a control preparation in the absence of the inhibitor (TSBP proteinases [2]; [4]) [%]	also measured
c1cnc2c(c1)ccc1cccnc12 [1,10 Phe]	inhibited	–	–	–	–
CC(C)C[C@H](NC(=O)[C@H]1O[C@@H]1C(=O)O)C(=O)NCCCCN=C(N)N [E64, L-transepoxysuccinyl-L-leucylamido-(4-guanidino)-butane]	–	–	–	–	TSBP proteinase activity in the presence of inhibitor (TSBP proteinases [2]; pH 5, azocasein, E64 100 μM): eliminated; zones of proteolysis at 37-38, 52, 70 and 100 kDa (TSBP proteinases [3]; pH 5, E64 100 μM): abolished; zones of proteolysis at 40, 50 and 70 kDa and stack/separating gel interface (TSBP proteinases [1]; pH 5): completely inhibited
O=C(O)CN(CCN(CC(=O)O)CC(=O)O)CC(=O)O [EDTA, ethylenediaminetetraacetic-acid]	–	markedly reduced	completely inhibited	–	percent activity lost in comparison to a control preparation in the absence of the inhibitor (TSBP proteinases [2]; pH 5): 11%; proteolysis reduced in the presence of inhibitor (percent activity lost) (TSBP proteinases [2]): 43%
O=S(=O)(F)Cc1ccccc1 [PMSF, phenylmethanesulphonylfluoride]	inhibited	markedly reduced	completely inhibited	28	proteolysis reduced in the presence of inhibitor (percent activity lost) (TSBP proteinases [2]; azocasein, PMSF 1.0 mM, EDTA 1.0 mM): 52%; 85 kDa doublet proteolysis (TSBP proteinases [1]; pH 8.5): inhibited
CC(C)CC(=O)N[C@H](C(=O)N[C@H](C(=O)N[C@@H](CC(C)C)[C@@H](O)CC(=O)N[C@@H](C)C(=O)N[C@@H](CC(C)C)[C@@H](O)CC(=O)O)C(C)C)C(C)C [Pepstatin, pepstatin] (Isovaleryl-VV[Sta]A[Sta]-OH)	–	–	–	6	–
